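1) Cells in 96-well plates. 2) Compound, 48 h, 5 concentrations. 3) Linear interpolation between surrounding doses. 4) Unreached endpoint = highest concentration. The concentration for 50% growth inhibition is given as GI50.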 Activity calls are given as the source filed them. Cut-off read from the data, not from the text of the source: active = GI50 up to about 1.1 µM and inactive = higher.
What was measured:
Experiment in all cases: inhibition of tumour cell growth, NCI panel, 48 h
MCF7 = tested on: MCF7
HOP-92 = tested on: HOP-92
A498 = tested on: A498
NCI-H226 = tested on: NCI-H226
SF-295 = tested on: SF-295
UO-31 = tested on: UO-31
NCI-H460 = tested on: NCI-H460
COLO 205 = tested on: COLO 205
EKVX = tested on: EKVX
BT-549 = tested on: BT-549
SF-268 = tested on: SF-268
A549 = tested on: A549
HOP-62 = tested on: HOP-62
K562 = tested on: K562
RXF 393 = tested on: RXF 393
T47D = tested on: T47D
SK-MEL-28 = tested on: SK-MEL-28
NCI-H23 = tested on: NCI-H23
SF-539 = tested on: SF-539

SMILES | GI50 (MCF7) | GI50 (HOP-92) | GI50 (A498) | GI50 (NCI-H226) | GI50 (SF-295) | GI50 (UO-31) | GI50 (NCI-H460) | GI50 (COLO 205) | GI50 (EKVX) | GI50 (BT-549) | GI50 (SF-268) | GI50 (A549) | GI50 (HOP-62) | GI50 (K562) | GI50 (RXF 393) | GI50 (T47D) | GI50 (SK-MEL-28) | GI50 (NCI-H23) | GI50 (SF-539)
CC(=O)Nc1c(C)cc(OCC(=O)O)cc1C | > 100 µM (inactive) | > 100 µM (inactive) | > 100 µM (inactive) | > 100 µM (inactive) | > 100 µM (inactive) | > 100 µM (inactive) | > 100 µM (inactive) | > 100 µM (inactive) | > 100 µM (inactive) | > 100 µM (inactive) | > 100 µM (inactive) | > 100 µM (inactive) | > 100 µM (inactive) | > 100 µM (inactive) | > 100 µM (inactive) | > 100 µM (inactive) | > 100 µM (inactive) | > 100 µM (inactive) | 
O=C(c1ccccc1)n1c(Cc2ccccc2)nc2cc(C34CC5CC(CC(C5)C3)C4)ccc21 | 24.4 µM (inactive) | 24 µM (inactive) | 62.1 µM (inactive) | 58.3 µM (inactive) | 52.2 µM (inactive) | 35.2 µM (inactive) | 52.7 µM (inactive) | 27.7 µM (inactive) | 81.8 µM (inactive) | 46.5 µM (inactive) | > 100 µM (inactive) | 37.7 µM (inactive) | 56.4 µM (inactive) | > 100 µM (inactive) | 27.4 µM (inactive) | 36.7 µM (inactive) | 84.3 µM (inactive) | 27.4 µM (inactive) | 
Oc1ccc2c(c1)-c1c(c3ccccc3n1CCN1CCOCC1)CC2 | 37.2 µM (inactive) |  | > 100 µM (inactive) | 24.6 µM (inactive) | 48.3 µM (inactive) | 33.9 µM (inactive) | > 100 µM (inactive) | 41.7 µM (inactive) | 53.2 µM (inactive) | 43.7 µM (inactive) | 59.4 µM (inactive) |  | 47 µM (inactive) | > 100 µM (inactive) | 66.7 µM (inactive) | 84.7 µM (inactive) |  | 27.9 µM (inactive) | 46 µM (inactive)
O=c1[nH]c(N/N=C\C(=N/Nc2nc3ccccc3c(=O)[nH]2)C(O)C(O)C(O)CO)nc2ccccc12 (configuration not stated) | > 100 µM (inactive) | > 100 µM (inactive) | > 100 µM (inactive) | > 100 µM (inactive) | > 100 µM (inactive) | > 100 µM (inactive) | > 100 µM (inactive) | > 100 µM (inactive) | > 100 µM (inactive) | > 100 µM (inactive) | > 100 µM (inactive) | > 100 µM (inactive) | > 100 µM (inactive) | > 100 µM (inactive) |  | > 100 µM (inactive) | > 100 µM (inactive) | > 100 µM (inactive) | > 100 µM (inactive)
O=C(CSCC(=O)N/N=C\c1ccc(-c2ccccc2)cc1)N/N=C\c1ccc(-c2ccccc2)cc1 | 36.1 µM (inactive) | 45.6 µM (inactive) |  | 28.8 µM (inactive) | 18.2 µM (inactive) | 28.5 µM (inactive) | 30.9 µM (inactive) | 13.6 µM (inactive) | 45.2 µM (inactive) | 20.8 µM (inactive) | 15.8 µM (inactive) | 25.8 µM (inactive) | 23 µM (inactive) | 25.8 µM (inactive) | 50.5 µM (inactive) | 34.9 µM (inactive) | 29.6 µM (inactive) | 17.8 µM (inactive) | 19.4 µM (inactive)
O=C1Nc2ccc(Br)cc2/C1=N/S(=O)(=O)O | 17.8 µM (inactive) | > 100 µM (inactive) | > 100 µM (inactive) | 28.4 µM (inactive) | 33.7 µM (inactive) | 35 µM (inactive) | 29 µM (inactive) | 46.8 µM (inactive) | 29.2 µM (inactive) | 34.8 µM (inactive) | 62.8 µM (inactive) | 26.1 µM (inactive) | 60.5 µM (inactive) | 17.3 µM (inactive) | 48.4 µM (inactive) | 29 µM (inactive) | 30.9 µM (inactive) | 19.6 µM (inactive) | 
CCCCC1(NN=C2CCCCC2)C(=O)N(c2ccccc2)N(c2ccccc2)C1=O | > 100 µM (inactive) |  |  |  | > 100 µM (inactive) | > 100 µM (inactive) | > 100 µM (inactive) | > 100 µM (inactive) | > 100 µM (inactive) | > 100 µM (inactive) | > 100 µM (inactive) | > 100 µM (inactive) | > 100 µM (inactive) | 30 µM (inactive) | > 100 µM (inactive) | > 100 µM (inactive) | > 100 µM (inactive) | > 100 µM (inactive) | > 100 µM (inactive)
COC(=O)[C@@H]1CC(C(CN)c2cn(C(=O)OC(C)(C)C)c3ccccc23)C(=O)N1C(=O)OC(C)(C)C (some centres not stated) | 23.8 µM (inactive) |  | 20.1 µM (inactive) | 29.9 µM (inactive) | 21.6 µM (inactive) | 32.4 µM (inactive) | 23.6 µM (inactive) | 17.3 µM (inactive) | 19.4 µM (inactive) | 31.6 µM (inactive) | 27.5 µM (inactive) | 35.3 µM (inactive) | 86.7 µM (inactive) | 21.9 µM (inactive) | 18 µM (inactive) | 44.2 µM (inactive) | 17.3 µM (inactive) | 35.8 µM (inactive) | 13.8 µM (inactive)
COc1cc2ccnc3c2c(c1OC)N(C)C=C3 | 16.6 µM (inactive) |  | 36.1 µM (inactive) | 21.2 µM (inactive) | 20.2 µM (inactive) | 14.2 µM (inactive) | 14.6 µM (inactive) | 20.5 µM (inactive) | 23.2 µM (inactive) | 33 µM (inactive) | 35.2 µM (inactive) | 17.7 µM (inactive) | 28.3 µM (inactive) | 21.1 µM (inactive) | 25.1 µM (inactive) | 32.3 µM (inactive) | 32.7 µM (inactive) | 19.4 µM (inactive) | 
CC(C)(C)OC(=O)NC(Cc1ccc(OCc2ccccc2)cn1)C(=O)N1CCSCC1 (configuration not stated) | 38.3 µM (inactive) | 47.4 µM (inactive) | 45.4 µM (inactive) |  | 37.2 µM (inactive) | 50.6 µM (inactive) | 38 µM (inactive) | 18.6 µM (inactive) | 41.6 µM (inactive) | 27.9 µM (inactive) | 65.3 µM (inactive) | 56.4 µM (inactive) | > 100 µM (inactive) | 31.7 µM (inactive) | 33.3 µM (inactive) | 20.8 µM (inactive) | 78.7 µM (inactive) | 28.6 µM (inactive) | 49 µM (inactive)
Cc1cn([C@H]2C[C@@H]3[C@@H](COC(CCl)N3O)O2)c(=O)[nH]c1=O (some centres not stated) | > 100 µM (inactive) |  | > 100 µM (inactive) | > 100 µM (inactive) | > 100 µM (inactive) | > 100 µM (inactive) | > 100 µM (inactive) | > 100 µM (inactive) | > 100 µM (inactive) | > 100 µM (inactive) | > 100 µM (inactive) | > 100 µM (inactive) | > 100 µM (inactive) | > 100 µM (inactive) | > 100 µM (inactive) | > 100 µM (inactive) | > 100 µM (inactive) |  | > 100 µM (inactive)
Cc1cccc(NC(Nc2cccc(C)c2)=C(C(Cl)=C(Cl)Cl)[N+](=O)[O-])c1 | 22.3 µM (inactive) |  | 36.7 µM (inactive) | 3.35 µM (inactive) | 14 µM (inactive) | 11.8 µM (inactive) | 14.2 µM (inactive) | 12.6 µM (inactive) | 18.1 µM (inactive) | 11.6 µM (inactive) | 13.6 µM (inactive) | 22 µM (inactive) | 16.7 µM (inactive) | 50.8 µM (inactive) | 3.94 µM (inactive) | 11.9 µM (inactive) | 17.3 µM (inactive) | 9.12 µM (inactive) | 10.1 µM (inactive)
CC(=O)O[C@@H]1C[C@@]2(C)[C@@H]3CC=C4[C@@H](C[C@H](O)C(=O)C4(C)C)[C@]3(C)C(=O)C[C@]2(C)[C@H]1[C@@](C)(O)C(=O)/C=C/C(C)(C)OC(C)=O | 3.57 µM (inactive) | 0.912 µM (active) | 0.0151 µM (active) | 0.338 µM (active) | 1.2 µM (inactive) | 0.298 µM (active) | 0.428 µM (active) | 1.5 µM (inactive) | 2.72 µM (inactive) | 0.336 µM (active) | 1.01 µM (active) | 0.881 µM (active) | 0.731 µM (active) | 1.51 µM (inactive) |  | 10.1 µM (inactive) | 0.365 µM (active) | 5.26 µM (inactive) | 1.25 µM (inactive)
CCOC(=O)N(CC)c1c(C(F)(F)F)cc(-c2ccccc2)[nH]c1=O | 44 µM (inactive) | 50.7 µM (inactive) | 50.7 µM (inactive) | > 100 µM (inactive) | 33.4 µM (inactive) | 56.1 µM (inactive) | 45.1 µM (inactive) | 32.4 µM (inactive) | 33.5 µM (inactive) | 75 µM (inactive) |  | 45.3 µM (inactive) | 73.5 µM (inactive) | 23.1 µM (inactive) | 28.2 µM (inactive) | 32.7 µM (inactive) | 70.6 µM (inactive) | 52.2 µM (inactive) | 
CCN(CC)C(=O)Cn1c(-c2ccccc2)cc2ccccc21 | 33.5 µM (inactive) | 27.7 µM (inactive) |  | 42.7 µM (inactive) |  | 17.5 µM (inactive) | 36.4 µM (inactive) | 16.6 µM (inactive) | 16.6 µM (inactive) | 33 µM (inactive) | 29 µM (inactive) | 33 µM (inactive) | 57.5 µM (inactive) | 25.8 µM (inactive) | 22.9 µM (inactive) | 42 µM (inactive) | 52.6 µM (inactive) | 44.4 µM (inactive) | 34.4 µM (inactive)

— ChEMBL document CHEMBL1201862, “PubChem BioAssay data set” (2004)
